# Reference: the NIST ThermoML archive (doi:10.1021/je030141r)
# ± gives the expanded uncertainty stated by the source.
# How the values were obtained:
# [1] = Liquid; for mass density: 101.33 kPa
# [2] = refractive index (Na D-line) (dimensionless); conditions: 101.33 kPa, Liquid, Standard Abbe refractometry
Compound,mass density ([1]; 298.15 K) [kg/m3],refractive index ([2]; 298.15 K),also measured
ClC(Cl)=C(Cl)Cl [tetrachloroethene],1614.3 ± 5,1.5032 ± 0.0012,vapor or sublimation pressure ([1]; 392.25 K): 95.8 ± 9.6 kPa
CCC(C)O (centres undefined) [butan-2-ol],802.4 ± 2.4,1.3953 ± 0.0012,vapor or sublimation pressure ([1]; 371.35 K): 95.8 ± 9.6 kPa
"ClC(Cl)C(Cl)Cl [1,1,2,2-tetrachloroethane]",1586.7 ± 4.9,1.4914 ± 0.0012,vapor or sublimation pressure ([1]; 417.35 K): 95.8 ± 9.7 kPa; vapor or sublimation pressure ([1]; 417.45 K): 95.8 ± 9.7 kPa
CC(C)CO [2-methyl-1-propanol],798 ± 2,1.3939 ± 0.0012,vapor or sublimation pressure ([1]; 379.65 K): 95.8 ± 19 kPa
"CC(Cl)(Cl)Cl [1,1,1-trichloroethane]",1329.9 ± 4.1,1.4359 ± 0.0012,vapor or sublimation pressure ([1]; 345.65 K): 95.8 ± 9.6 kPa
C1CCCCC1 [cyclohexane],773.9 ± 2.3,1.4235 ± 0.0012,vapor or sublimation pressure ([1]; 351.75 K): 94.6 ± 9.5 kPa
CCCCCCC [heptane],679.5 ± 2,1.3851 ± 0.0012,vapor or sublimation pressure ([1]; 369.35 K): 94.6 ± 9.5 kPa
CCCCO [butan-1-ol],805.8 ± 2.4,1.3974 ± 0.0012,vapor or sublimation pressure ([1]; 389.45 K): 95.8 ± 9.6 kPa
CCC(C)CO (centres undefined) [2-methyl-1-butanol],815 ± 2.5,1.4084 ± 0.0008,vapor or sublimation pressure ([1]; 400.35 K): 95.8 ± 9.7 kPa
CC(C)(C)O [2-methylpropan-2-ol],781.2 ± 2.3,1.385 ± 0.001,vapor or sublimation pressure ([1]; 354.15 K): 95.8 ± 9.6 kPa
"ClCCCl [1,2-dichloroethane]",1246.4 ± 3.8,1.4421 ± 0.0012,vapor or sublimation pressure ([1]; 355.25 K): 95.8 ± 9.6 kPa
ClC=C(Cl)Cl [trichloroethene],–,1.475 ± 0.001,mass density ([1]; 303.15 K): 1451.4 ± 4.5 kg/m3; vapor or sublimation pressure ([1]; 357.95 K): 95.8 ± 9.6 kPa
CCC(C)=O [butanone],799.7 ± 2.4,1.3769 ± 0.0012,vapor or sublimation pressure ([1]; 350.75 K): 94.6 ± 19 kPa
C1CCOC1 [tetrahydrofuran],–,–,mass density ([1]; 293.15 K): 889.2 ± 2.7 kg/m3; vapor or sublimation pressure ([1]; 337.15 K): 94.6 ± 9.5 kPa; vapor or sublimation pressure ([1]; 337.55 K): 95.8 ± 9.6 kPa; refractive index ([2]; 293.15 K): 1.4072 ± 0.0012
